The record followed here is PMC5333395, “Assessing histone demethylase inhibitors in cells: lessons learned” (Epigenetics & Chromatin, 2017).

For one assay, the target named is T1, KDM4A (Homo sapiens, UniProt O75164, A482E).
T1 construct: transiently transfecting the full-length FLAG-tagged demethylase (WT) into cells; expressed in transfected cells; host or cells: HeLa
T1 sequence (O75164 1-1064 A482E): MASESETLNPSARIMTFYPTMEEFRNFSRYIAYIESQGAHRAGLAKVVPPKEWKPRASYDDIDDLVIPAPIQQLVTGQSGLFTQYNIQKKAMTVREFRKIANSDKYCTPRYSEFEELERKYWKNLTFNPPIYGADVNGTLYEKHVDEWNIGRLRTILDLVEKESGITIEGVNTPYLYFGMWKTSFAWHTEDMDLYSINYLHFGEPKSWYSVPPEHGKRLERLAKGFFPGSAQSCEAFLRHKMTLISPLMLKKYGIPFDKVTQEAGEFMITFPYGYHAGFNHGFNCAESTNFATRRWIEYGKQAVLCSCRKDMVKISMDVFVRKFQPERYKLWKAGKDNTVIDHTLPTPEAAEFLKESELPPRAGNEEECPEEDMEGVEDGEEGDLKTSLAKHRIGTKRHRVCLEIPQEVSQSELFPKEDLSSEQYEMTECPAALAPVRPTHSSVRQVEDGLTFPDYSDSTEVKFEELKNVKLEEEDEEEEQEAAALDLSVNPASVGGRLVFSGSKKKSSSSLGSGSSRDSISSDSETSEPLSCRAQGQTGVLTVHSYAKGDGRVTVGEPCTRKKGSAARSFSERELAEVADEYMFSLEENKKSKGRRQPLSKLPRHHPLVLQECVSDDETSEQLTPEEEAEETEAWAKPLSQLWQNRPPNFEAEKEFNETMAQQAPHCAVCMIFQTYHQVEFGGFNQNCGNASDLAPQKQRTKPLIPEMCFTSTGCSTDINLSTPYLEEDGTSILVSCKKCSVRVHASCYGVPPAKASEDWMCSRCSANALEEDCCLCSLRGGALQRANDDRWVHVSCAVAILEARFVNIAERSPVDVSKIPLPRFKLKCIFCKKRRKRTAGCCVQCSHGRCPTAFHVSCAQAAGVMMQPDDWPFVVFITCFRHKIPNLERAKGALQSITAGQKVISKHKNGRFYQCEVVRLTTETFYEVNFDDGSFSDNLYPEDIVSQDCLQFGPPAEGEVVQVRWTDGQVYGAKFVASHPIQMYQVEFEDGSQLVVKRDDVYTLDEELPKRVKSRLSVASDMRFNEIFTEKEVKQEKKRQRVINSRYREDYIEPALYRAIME
Description: High-content immunofluorescence (IF) assay, overexpressed full-length FLAG-tagged KDM in HeLa cells. To be noted: HeLa cells transfected with KDM4A. In kind it is cell-based.

Another assay addresses T2, KDM3A (Homo sapiens, UniProt Q9Y4C1).
T2 sequence (Q9Y4C1 1-1321): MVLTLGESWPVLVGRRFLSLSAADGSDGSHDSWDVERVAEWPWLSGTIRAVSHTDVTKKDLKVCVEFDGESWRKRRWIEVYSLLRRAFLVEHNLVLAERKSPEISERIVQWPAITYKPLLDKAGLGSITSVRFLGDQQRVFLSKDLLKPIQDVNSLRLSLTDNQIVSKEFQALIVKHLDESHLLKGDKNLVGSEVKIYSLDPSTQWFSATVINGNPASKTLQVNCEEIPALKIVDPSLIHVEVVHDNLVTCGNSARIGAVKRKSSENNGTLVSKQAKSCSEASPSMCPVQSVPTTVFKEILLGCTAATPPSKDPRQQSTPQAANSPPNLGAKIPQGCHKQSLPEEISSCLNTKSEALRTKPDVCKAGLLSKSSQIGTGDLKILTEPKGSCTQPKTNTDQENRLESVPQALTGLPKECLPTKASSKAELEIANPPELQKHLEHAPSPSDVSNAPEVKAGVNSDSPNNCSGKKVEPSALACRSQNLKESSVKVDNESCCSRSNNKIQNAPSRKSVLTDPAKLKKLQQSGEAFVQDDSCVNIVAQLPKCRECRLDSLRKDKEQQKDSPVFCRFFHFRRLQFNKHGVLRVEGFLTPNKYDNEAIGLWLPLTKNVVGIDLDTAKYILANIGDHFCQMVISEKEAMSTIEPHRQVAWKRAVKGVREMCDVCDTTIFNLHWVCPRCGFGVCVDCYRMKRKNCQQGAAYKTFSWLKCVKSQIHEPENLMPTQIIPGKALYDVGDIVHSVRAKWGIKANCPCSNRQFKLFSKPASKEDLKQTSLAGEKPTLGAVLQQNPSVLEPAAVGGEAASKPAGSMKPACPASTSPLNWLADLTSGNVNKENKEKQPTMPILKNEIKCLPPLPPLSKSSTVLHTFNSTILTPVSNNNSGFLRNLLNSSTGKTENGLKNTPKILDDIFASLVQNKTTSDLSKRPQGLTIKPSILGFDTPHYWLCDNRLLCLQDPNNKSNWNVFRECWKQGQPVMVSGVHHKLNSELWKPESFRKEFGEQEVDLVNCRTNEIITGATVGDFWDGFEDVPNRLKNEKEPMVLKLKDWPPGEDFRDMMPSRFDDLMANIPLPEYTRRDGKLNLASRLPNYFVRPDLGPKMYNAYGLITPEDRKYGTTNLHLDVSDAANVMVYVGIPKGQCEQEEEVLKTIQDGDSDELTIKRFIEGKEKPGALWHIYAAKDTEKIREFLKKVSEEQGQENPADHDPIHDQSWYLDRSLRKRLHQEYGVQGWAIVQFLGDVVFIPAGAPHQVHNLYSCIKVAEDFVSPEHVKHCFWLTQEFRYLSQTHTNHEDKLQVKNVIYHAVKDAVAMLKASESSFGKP
Described as above. To be noted: HeLa cells overexpressing WT KDM3A, H3K9me2 mark, 24 h; read-out: KDM3A, in cells, EC50 by IF assay (head: IC50). In kind it is cell-based.

Structures are written as SMILES.

As for `O=c1[nH]cnc2c(-n3cc(CCN4CCC(c5cccc(Cl)c5)CC4)cn3)cccc12` [CCT366293, 8-(4-(2-(4-(3-Chlorophenyl)piperidin-1-yl)ethyl)-1H-pyrazol-1-yl)quinazolin-4(3H)-one], the “Effect on H3K9me3 levels in KDM4A IF assay, in words” value at KDM4A was “no effect”.

`CCN(CCN(C)C)C(=O)CNCc1cncc(C(N)=O)c1` [KDOAM-32]: the EC50 (commonly the concentration giving half of the maximal effect) on KDM3A was more than 100 µM.
